Results: US4098823A, “Monospiroalkyl derivatives of prostaglandins” (Miles Laboratories, Inc., priority 1977, dated 1978)

Key:
Gastric Secretion = experiment: Effects on Gastric Secretion in the Rat; type: in vivo; settings: pylorus-ligated rat, subcutaneous, 2 x 1.5 mg/kg (total 3.0 mg/kg), 4 hours
Experimental: A procedure based on that described by Lipmann (J. Pharm. Pharmacol., 21:335 [1968]) was used to assess the influence of test compounds on gastric secretion. Rats of one sex weighing 150 to 200 g were randomly divided into groups of six animals each and fasted for 48 hours previously to the experiments, water being available adlibitum. The animals were anesthetized with ether, the abdomen was opened through a midline incision and the pylorus was ligated. Test compounds were diluted from stock solution so as to administer a dose of 1.5 mg/kg in a volume equivalent to 1 ml/kg. Subcutaneous injections were applied immediately after surgery and again 2 hours later, so that a total dose of 3.0 mg/kg was administered. Dilutions were made with phosphate buffer (pH 7.38) as recommended by Lee et al. (Prostaglandins 3:29 [1973]), in order to insure adequate stability of drugs at the subcutaneous depot. Each compound was tested in one group of rats; an additional control group received only the vehicle.
Four hours after pyloric ligation the animals were killed with ether, the cardias ligated and the stomachs removed. The volume of gastric secretion was measured and the contents centrifuged at 500 rpm for 10 minutes. Total acid in the supernatant was titrated against a 0.1 N sodium hydroxide solution and the amount expressed in mEq.
Volume and total acid values of the treated group were compared with those of the controls by the "T" test. Antisecretory activity was scored according to the following scale: […]

Femoral Blood Flow = experiment: Effects on Femoral Blood Flow in the Dog; type: in vivo; settings: anesthetized mongrel dog, intraarterial, 0.001 to 10 mcg
Experimental: The peripheral vasodilator or constrictor effects of these compounds were determined in mongrel dogs of either sex, weighing between 10 and 20 kg anesthestized intravenously with 35 mg/kg of sodium pentobarbital. An external iliac artery was dissected immediately above the femoral arch for a length of approximately 5 cm and a previously calibrated, non-connulating electromagnetic flowmeter sensor with a lumen between 2.5 and 3.5 mm was placed snugly around the vessel. Cannulas were placed in a branch of the artery arising distally to the location of the flowmeter sensor for intraarterial drug administrations, in the contralateral femoral artery for systemic blood pressure recordings and in the trachea for artificial respiration with room air. Femoral blood flow and systemic blood pressure were continously recorded with an electromagnetic flowmeter and pressure tranducer, respectively.
After an adequate control period, test compounds were injected intraarterially at one log-spaced doses ranging from 0.001 to 10 mcg., in a volume of 0.5 ml and at 5 to 10 minute intervals. Maximum changes in bloodflow, as well as any variations in blood pressure, were tabulated for each dose in absolute values (ml/min. and mmHg). The calculations were made taking as control values those existing immediately before administration of each dose. The direction of the observed change (plus for increase and minus for decrease) was also noted. The dose changing bloodflow by 100 ml/min (ED100 ml/min) was calculated graphically and was used for scoring activity as follows: […]

rat stomach fundus = experiment: Cascade Assay, stomach (smooth muscle stimulant effect); type: cell-based; settings: superfused, 50% of maximum (PGE1)
Experimental: (§1) The smooth muscle stimulant effects of test compounds were determined simultaneously in four different tissues that are known to be reactive to naturally occurring prostaglandins. Segments of rat stomach fundus, rat colon, chick rectum and rabbit aortic strip were obtained as described by: Vane, J. R., Brit. J. Pharmacol., 12: 344 (1957); Regoli, D. and Vane, J. R., Brit. J. Pharmacol., 23: 351 (1964); Mann, M. and West, G. B., Brit. J. Pharmacol., 5: 173 (1950); and Furchgott, R. F. and Bhadrakom, R., J. Pharmacol. Exper. Ther., 108: 129 (1953). One end of each preparation was tied to the bottom of a 10 ml tissue chamber and the other to a force displacement transducer (Grass FT-03) for continuous tension recording. The stomach, colon, and rectum segments were stretched to an initial tension of 1 g, while the aortic strip was subjected to 4 g. All preparations were left undisturbed for 1 hour prior to testing. The chambers were equipped with an external jacket through which water, maintained at 40° C, was circulated. Preparations were arranged one beneath the other in descending order (aorta, stomach, colon and rectum). Provision was made for bathing the four tissues successively so that they were superfused with the same fluid (Gaddum, H. J., Brit. J. Pharmacol., 6: 321 [1953]. The bathing fluid consisted of: Krebs bicarbonate solution aerated with a mixture of 95% O2 and 5% CO2 and warmed at 37° C; atropine sulphate (0.1 mcg/ml), phenoxybenzamine hydrochloride (0.1 mcg/ml), propranolol hydrochloride (3.0 mcg/ml), methysergide maleate (0.2 mcg/ml) and brompheniramine maleate (0.1 mcg/ml) were added to eliminate the possibility of smooth muscle responses being due to stimulation of cholinergic, adrenergic, serotonin or histamine receptors. The fluid was circulated by means of a roller pump and was allowed to drip over the preparations at a rate of 10 ml/minute.
(§2) Test compounds were diluted from stock solutions so as to administer quantities ranging from 0.001 100,000 ng in a volume of 0.5 ml. The compounds were applied by dripping on the uppermost tissue, at intervals of 10 to 20 minutes. Maximal increases in tension after each dose were measured and the results were used to plot dose-response curves. ED50 data (doses necessary to produce a response 50% of maximum) were then calculated graphically for each tissue.
(§3) Activity in each tissue was scored according to the following scale: […]

[1] = test system: Blood Pressure and Heart Rate; experiment: Effects on Blood Pressure and Heart Rate in the Anesthetized Cat; type: in vivo; settings: Felis catus, intravenous, 0.01 to 10.0 mcg/kg, scored only on hypotension, read-out: Test D Activity Value (ED50 mmHg, decrease in blood pressure);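 also: Anesthetized cats given intravenous doses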
Experimental: The acute effects of test compounds on blood pressure and heart rate were determined in cats of either sex anesthetized with a mixture of pentobarbital sodium (35 mg/kg, i.v.) and barbital sodium (100 mg/kg, i.v.). Cannulas were placed in the trachea to allow adequate spontaneous ventilation, in a femoral artery for blood pressure recording with a strain gage transducer, and in a saphenous vein for drug administration. Heart rate was recorded by means of a cardiotachometer driven by the R wave of the electrocardiogram. After a period of 10 minutes of stable recordings of blood pressure and heart rate, the test compound was administered intravenously at doses increasing from 0.01 to 10.0 mcg/kg, spaced one log and injected at 10 minutes intervals. All doses were injected in a volume of 0.1 ml/kg. Modifications of blood pressure and heart rate induced by the test compound were expressed both in absolute units (mmHg and beats/minutes) and as percent of values recorded immediately before administration of each dose. Biphasic responses were tabulated in the order in which they occur. The direction of the observed changes was also noted (+ for increases and - for decreases).
Activity of compounds in this test was judged only on the basis of the degree of hypotension observed. Thus, the ED50 mmHg (dose decreasing blood pressure by 50 mmHg) was calculated graphically and the compound scored according to the following scale: […]

chick rectum = experiment: Cascade Assay, rectum (smooth muscle stimulant effect); type: cell-based; settings: superfused, 50% of maximum (PGE1)
Experimental: as §1, §2, §3

Rat Uterus = experiment: Effects on the Rat Uterus in Vitro; type: cell-based; settings: Rattus norvegicus; in vitro, 29° C; response 50% that of carbachol; read-out: Test F Rat Uterus, Activity Value (ED50)
Experimental: The uterine stimulant effect of test compounds was determined in segments of uterus obtained from rats (140-160 g) pretreated subcutaneously with 1 mg/kg of diethyl-stilbesterol 18 hours before the experiment. The tissues were placed in 10 ml chambers filled with de-Jalon solution at 29° C, were aerated and bubbled with 95% O2 and 5% CO2, and were prepared for isometric recording with force displacement transducers. Preparations were stretched to an initial tension of 1 g and were left undisturbed for 30 minutes. Carbachol (1 mcg/ml) was then added to the bath and a response was recorded. After a 10 minute interval the carbachol procedure was repeated. Responses to increasing concentrations of a test compound (0.001 to 10 mcg/ml with one log intervals) were then recorded every 10 minutes. Preparations were washed four times after each response. All doses of compounds were administered in a 0.1 ml volume. Because it has been observed that the magnitude of the second response to carbachol (approximately 10% greater than the first) is close to the maximal response of the tissue, such value was taken as a measure of the sensitivity of a particular segment. Responses to each concentration of the test compound were expressed in terms of percentage of the second response to carbachol and the ED50 (dose producing a response 50% that of carbachol) was calculated graphically. Activity was scored according to the following scale: […]

rabbit aortic strip = experiment: Cascade Assay, aorta (smooth muscle stimulant effect); type: cell-based; settings: superfused, 50% of maximum (PGA2)
Experimental: as §1, §2, §3

rat colon = experiment: Cascade Assay, colon (smooth muscle stimulant effect); type: cell-based; settings: superfused, 50% of maximum (PGF2α)
Experimental: as §1, §2, §3

EC50 (Rat Uterus) [µg/mL]	Structure (SMILES)	Test B Activity Value (% decrease in acidity, inhibition of gastric secretion) (Gastric Secretion)	Test C Activity Value (ED100 ml/min, increase in femoral blood flow) (Femoral Blood Flow)	Test E Cascade Assay, Stomach, Activity Value (ED50) (rat stomach fundus)	ED (50 mmHg) [1] [mg/kg]	Test E Cascade Assay, Rectum, Activity Value (ED50) (chick rectum)	Test E Cascade Assay, Aorta, Activity Value (ED50) (rabbit aortic strip)	Test E Cascade Assay, Colon, Activity Value (ED50) (rat colon)
> 10	O=C(O)CCCCCC[C@H]1C(=O)CC[C@@H]1/C=C/[C@@H](O)C1CC2(CCC2)C1 (relative stereo) [TR-4136, dl 7-{5-oxo-2R-[3S-hydroxy-3-(spiro[3.3]hept-2-yl)-1E-propenyl]cyclopent-1R-yl}heptanoic acid]	1 (26-50, not significant)	0 (>10.0)	2 (101 - 1000)	> 0.01	1 (1001 - 10000)	0 (>10000)	0 (>10000)
> 10	O=C(O)CCC/C=C\C[C@H]1C(=O)CC[C@@H]1/C=C/[C@@H](O)C1CC2(CCC2)C1 (relative stereo) [TR-4146, dl 7-{5-oxo-2R-[3S-hydroxy-3-(spiro[3.3]hept-2-yl)-1E-propenyl]cyclopent-1R-yl}hept-5Z-enoic acid]	0 (<26)	0 (>10.0)	1 (1001 - 10000)	> 0.01		0 (>10000)	2 (101 - 1000)
> 10	O=C(O)CCCCCC[C@H]1C(=O)CC[C@@H]1/C=C/[C@H](O)C1CCC2(CCCCC2)CC1 (relative stereo) [TR-4020, dl 7-{5-oxo-2R-[3R-hydroxy-3-(spiro[5.5]undecan-3-yl)-1E-propenyl]cyclopent-1R-yl}heptanoic acid]	0 (<26)	0 (>10.0)	2 (101 - 1000)	> 0.01	0 (>10000)	0 (>10000)	0 (>10000)
> 10	COC(=O)CCCCCC[C@H]1C(=O)C[C@@H](O)[C@@H]1/C=C/[C@@H](O)C1CC2(CCC2)C1 [TR-4121, Methyl 7-{3R-hydroxy-5-oxo-2R-[3S-hydroxy-3-(spiro[3.3]hept-2-yl)-1E-propenyl]cyclopent-1R-yl}heptanoate]	1 (26-50, not significant)	2 (0.11 - 1.0)	0 (>10000)	> 0.01	0 (>10000)	0 (>10000)	0 (>10000)
> 10	O=C(O)CCC/C=C\C[C@H]1C(=O)CC[C@@H]1/C=C/[C@H](O)C1CC2(CCC2)C1 (relative stereo) [TR-4147, dl 7-{5-oxo-2R-[3R-hydroxy-3-(spiro[3.3]hept-2-yl)-1E-propenyl]cyclopent-1R-yl}hept-5Z-enoic acid]	0 (<26)	0 (>10.0)	2 (101 - 1000)	0.00011 to 0.001	2 (101 - 1000)	1 (1001 - 10000)	0 (>10000)
> 10	COC(=O)CCCCCC[C@@H]1[C@@H](/C=C/[C@@H](O)C2CC3(CCC3)C2)[C@H](O)C[C@H]1O [TR-4138, Methyl 7-{3R, 5R-dihydroxy-2R-[3S-hydroxy-3-(spirol[3.3]hept-2-yl)-1E-propenyl]cyclopent-1R-yl}heptanoate]			0 (>10000)	> 0.01	0 (>10000)	0 (>10000)	0 (>10000)
> 10	O=C(O)CCCCCC[C@H]1C(=O)CC[C@@H]1/C=C/[C@H](O)C1CC2(CCC2)C1 (relative stereo) [TR-4137, dl 7-{5-oxo-2R-[3R-hydroxy-3-(spiro[3.3]hept-2-yl)-1E-propenyl]cyclopent-1R-yl}heptanoic acid]	3 (51-75)	3 (0.01 - 0.1)	1 (1001 - 10000)	0.00011 to 0.001		0 (>10000)	0 (>10000)
